# Assay results as given in US20240317762A1, “PHTHALAZINONE-BASED PARP-1 INHIBITORS” (Oregon Health & Science University, priority 2021, published 2024).
# Assays:
# [1] = molecular target: T1, PARP-1 (Homo sapiens, UniProt P09874); test: in vitro PARP-1 auto-PARylation assay (SRPK2 plate assay); format: biochemical; parameters: The full-length WT PARP-1 protein used in these assays; made in house; conditions: read-out: IC50 against PARP-1 catalytic activity (auto-PARylation)
# Protocol: IC50 SRPK2 Plate Assays were performed as previously described (21). Log(inhibitor) versus response curves were fit using non-linear regression with variable slope. Mean IC50 values for each compound were derived from a minimum of three separate replicates.
# [2] = molecular target: T1, PARP-1; test: in vitro fluorescence polarization DNA competition assay; conditions: 25 μM compound; PARP-1 40 nM; nicked dumbbell DNA probe 20 nM
# Protocol: The full-length WT PARP-1 protein used in these assays was purified as described previously (30).
# An unlabeled competitor was added and the decrease in fluorescence polarization was measured across time.
# [3] = test system: HEK 293T cells; test: cell proliferation (MTT) assay; format: cell-based, human; conditions: MTT, 72 h; for EC50: Homo sapiens, HEK-293T, read-out: EC50 cell growth
# Protocol: HEK 293T or HEK 293 PARP-1 KO cells were seeded in a 96 well plate at 1000-2000 cells per well. Following an overnight incubation, MTT reagent, 3-(4,5-dimethylthiazol-2-yl)-2,5-diphenyltetrazolium bromide, or a dosage curve of indicated inhibitor was added to each well in quadruplicate. Following a 3-hour incubation at 37° C., wells containing MTT reagent, were aspirated and lysed with 100 μl DMSO. These wells acting as a no growth control were collected, saved @ −20° C., and replaced with 100 μl water. The plate was placed back into the incubator for a total of 72 hours of inhibitor treatment prior to MTT reagent being added for a final time. Following a 3 hour incubation with the reagent, wells were aspirated, and 100 μl DMSO were added to each well, while the no growth control sample was added back to the plate. Absorbance was read on a SpectraMaxi3 plate reader (Molecular Devices). Percent growth was calculated for analysis. Statistical significance was assigned using individual t-tests between conditions for each inhibitor dosage.
# (§1) Error bars represent SEM. […] Error bars represent SEM. […] Error bars represent SEM.
# [4] = test system: Ewing sarcoma cell line EW-8; test: ES-8 viability screen (CellTiter-Glo); format: cell-based; conditions: for Fold Difference to Pip6: ratio of EC50 values; for EC50: viability, 72 h
# Protocol: Cell viability was measured using the CellTiter-Glo (Promega, G7573) assay and read using an Envision (PerkinElmer) plate reader. Compound source plates (96-well) were prepared by solubilizing each drug in DMSO to a maximum concentration of 1-50 mM, then arraying samples in 10-point dose-response with 3-fold dilution. Positive and negative controls (staurosporine at 10 mM and DMSO, respectively) were added to the source plates. Drug was transferred from the source plate to the assay plate using a Biomek FX (Beckman Coulter) liquid handler equipped with a pin tool which transferred ˜100 nl into a final volume of 100 μl, resulting in ˜1000-fold dilution. At least two biological replicates (assay performed on different day with same drug plate and independent cell preparation) were obtained for each drug. To analyze the assay, the relative light unit signal in each well was first log 2 transformed, then normalized by subtracting the mean of the negative controls wells on each plate.
# FIGS. 6A-6E. […] 0.1 μM ad-olaparib (chemical structure indicated in panel a) was added to the cells for 1 hour before undergoing a UV treatment for 5 minutes in cold PBS. Cells were lysed and sonicated in PBS (1% Triton X-100+1% SDS), clicked with TAMRA-azide and run out on SDS-PAGE. The gel was imaged for TAMRA and probed for PARP-1 (Bethyl Laboratories), and alpha-tubulin (X). FIGS. 6B, 6D) Quantification of western blot images. TAMRA or ADPr values are normalized to PARP-1 within each replicate and plotted as percentage compared to DMSO. Error bars indicate SEM (n=3-4). Statistical significance of off-rate calculated via multiple t-tests (p<0.05). […] Cells were subsequently treated with PARGi (10 μM) for 30 minutes, lysed using RIPA buffer, run out on SDS-PAGE, and probed for ADPr (Cell Signaling) and PARP-1 (Bethyl Laboratories). FIG. 6E) ES-8 cells were treated with indicated concentration of inhibitors for 72 hours before measuring cell viability using the CellTiter-Glo kit (Promega G7573). IC50 values were calculated using R statistical software.
# [5] = test system: HEK 293T cells; test: analysis of cell cycle (DAPI, flow cytometry); conditions: for G1 / G2 / S: DAPI intensity, 18 hours
# Protocol: After the indicated treatments, cells were washed twice with 1× PBS, trypsinized off of the plate, and washed an additional 2 times with 1×PBS. Cells were then permeabilized using 70% cold ethanol while vortexing before incubating for 30 min at 4° C. Cells were then washed three times with 1×PBS and counted using a hemocytometer to create a final pellet of 1×10^6 cells in for each inhibitor condition. 500 μl of DAPI solution (1 μg/ml DAPI, 0.1% Triton X-100 in PBS) was added to each cell pellet and incubated on ice for 30 min before being analyzed by flow cytometry using a BD Canto II. All data was analyzed on FlowJo software, gating for 20,000 singlet events. Manual cell cycle gates were set onto the DMSO control data using Watson modeling as reference. These gates were applied to all treatment conditions to obtain quantitative analysis.
# Error bars represent SEM. […] Caspase-Glo 3/7 reagent was added to each well and luminescence was read after 30 minutes. […] Error bars represent SEM. […] Cell cycle was analyzed by flow cytometry (20,000 singlet events) and cell cycle statistics were calculated in FlowJo software against DMSO Watson modeling (n=3). FIG. 3F) DNA synthesis was measured using EdU incorporation. […] EdU incorporation was labelled using TAMRA azide click-chemistry and imaged at 20×. Mean intensity of TAMRA signal within DAPI masks analyzed using Zen software (n>3900 cells over 2 replicates). Values are normalized to the average DMSO control within each replicate. Error bars represent SEM. Statistical significance calculated via one-way ANOVA with Tukey's multiple comparisons test (p<0.05).
# [6] = test system: caspase-3/7 activity in HEK 293 cells; test: cell apoptosis assay (Caspase-Glo 3/7); format: cell-based, human; conditions: 1 μM, 72 hours
# Protocol: HEK 293 or HEK 293 PARP-1 KO cells were seeded in a 96 well plate at 1000-2000 cells per well, a media only “blank” was also included. Following an overnight incubation, cells were treated with 1 μM of indicated inhibitors. “Blank” wells were treated with DMSO. Following a 72 hour inhibitor treatment, the Caspase-Glo 3/7 Assay was completed following the manufacturer instructions (Promega, #G8091). Luminescence was read on a SpectraMax i3 plate reader (Molecular Devices).
# as §1
# [7] = test system: pan-nuclear γH2AX in HEK 293T cells; test: γH2AX immunofluorescence; format: cell-based, human; conditions: for reduction of AZ0108-induced pan-nuclear γH2AX / increase of AZ0108-induced pan-nuclear γH2AX: kinase inhibitor co-treated with AZ0108
# Protocol: HEK 293T or HEK 293 PARP-1 KO cells were seeded onto poly-d-lysine treated glass coverslips and treated with indicated concentrations of inhibitors for 18 hours. Cells were then washed with 1×PBS and fixed using 4% Sucrose/4% Paraformaldehyde in PBS for 20 minutes. After three washes in 1×PBS, cells were permeabilized in 0.3% Triton X-100 in PBS for 5 minutes followed by an additional three washes in 1×PBS. Coverslips were blocked in 3% BSA/0.1% Triton X-100 in PBS for 1 hour and then placed in primary anti-rabbit phosphoH2Ax antibody (1:200, Cell Signaling) overnight at 4° C. The next morning, cells were washed three times in 1×PBS and treated with blocking solution, 3% BSA/0.1% Triton X-100 in PBS, for 30 minutes before being placed in secondary anti-rabbit Alexa Fluor 647 (1:1000 Jackson Immuno) for 1 hour at RT. After three subsequent 1×PBS washes, coverslips were mounted using ProLong Gold antifade reagent with DAPI (Invitrogen). All immunofluorescence images were taken on a Zeiss ApoTome2 on Axiolmager and analyzed using Zeiss software. Mean intensity of the Alexa Fluor 647 signal was measured after imposing DAPI masks over the nucleus of each cell. All cells within a 20× image, was analyzed (˜3000 cells/condition).
# Cell are stained for DAPI and γH2AX. Scale bar indicates 50 μm. FIG. 2B) Quantification of panel a. […] Error bars represent SEM. […] Error bars represent SEM. […] Error bars represent SEM.
# [8] = test system: PARP-1 (full-length WT) (Homo sapiens); test: FP; conditions: 5 uM AZ0108 increased affinity 4-fold over no inhibitor; olaparib only modest effect
# [9] = test system: Ser345 phosphorylation of Chk1 in HEK 293 cells; test: western blot analysis of phosphorylation of Chk1; conditions: co-treatment with AZ0108
# T1 sequence (P09874 whole entry): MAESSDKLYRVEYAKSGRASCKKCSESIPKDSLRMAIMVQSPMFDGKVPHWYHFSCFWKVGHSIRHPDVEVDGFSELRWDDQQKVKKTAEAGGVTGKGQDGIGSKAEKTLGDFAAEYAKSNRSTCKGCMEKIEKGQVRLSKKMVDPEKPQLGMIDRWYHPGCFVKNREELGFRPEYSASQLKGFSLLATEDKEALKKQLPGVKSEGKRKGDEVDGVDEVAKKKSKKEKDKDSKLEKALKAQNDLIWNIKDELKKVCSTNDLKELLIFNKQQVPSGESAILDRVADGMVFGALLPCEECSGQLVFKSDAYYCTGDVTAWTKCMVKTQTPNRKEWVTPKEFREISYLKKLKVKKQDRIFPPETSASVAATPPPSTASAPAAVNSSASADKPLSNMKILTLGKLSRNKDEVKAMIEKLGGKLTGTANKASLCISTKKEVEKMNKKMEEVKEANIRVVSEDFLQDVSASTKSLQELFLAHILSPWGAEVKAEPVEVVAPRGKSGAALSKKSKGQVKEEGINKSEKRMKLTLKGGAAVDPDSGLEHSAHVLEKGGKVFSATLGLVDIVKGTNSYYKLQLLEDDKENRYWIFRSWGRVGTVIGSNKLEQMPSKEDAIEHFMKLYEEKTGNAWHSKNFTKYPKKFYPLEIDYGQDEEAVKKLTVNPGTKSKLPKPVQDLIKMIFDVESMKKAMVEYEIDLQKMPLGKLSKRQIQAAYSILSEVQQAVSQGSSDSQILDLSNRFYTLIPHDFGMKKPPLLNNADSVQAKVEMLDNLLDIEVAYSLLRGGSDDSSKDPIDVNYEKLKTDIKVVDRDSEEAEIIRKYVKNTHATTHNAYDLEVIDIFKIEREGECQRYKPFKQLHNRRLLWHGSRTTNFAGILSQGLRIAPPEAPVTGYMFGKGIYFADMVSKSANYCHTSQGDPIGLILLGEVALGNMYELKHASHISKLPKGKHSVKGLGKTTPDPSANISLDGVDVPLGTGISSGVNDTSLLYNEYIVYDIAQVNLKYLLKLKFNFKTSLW
compound,measurement,setting,value
"O=C(c1cc(Cc2n[nH]c(=O)c3ccccc23)ccc1F)N1CCn2cnnc2C1 [Pip1, 4-(4-Fluoro-3-(5,6,7,8-tetrahydro-[1,2,4]triazolo[4,3-a]pyrazine-7-carbonyl)benzyl)phthalazin-1(2H)-one]",IC50,[1],0.0039 µM
same,exchange of the PARP-1:labled DNA complex with an unlabeled DNA competitor,[2],very little impact
same,EC50,[3],~6 µM
NC(=O)c1cccc2cn(-c3ccc([C@@H]4CCCNC4)cc3)nc12 [Niraparib],Fold Difference to Pip6,[4],5693
same,EC50,[4],1.38 µM
O=C(c1cc(Cc2n[nH]c(=O)c3ccccc23)ccc1F)N1CCN(C(=O)C2CC2)CC1 [Olaparib],G1,[5],19.4%
same,G2,[5],9.50%
same,S,[5],54.0%
same,effect on cell cycle,"[5]; FACS, DAPI fluorescence",did not alter the cell cycle
same,reduction of caspase-3/7 activity,[6],did not significantly affect
same,pan-nuclear γH2AX induction,"[7]; HEK 293T cells, 18 hours",did not induce either pan-nuclear γH2AX or γH2AX foci
same,effect of co-treatment on AZ0108-induced pan-nuclear γH2AX,[7]; co-treatment with AZ0108,reversed the effects of AZ0108 on pan-nuclear γH2AX
same,EC50,[3],~10 µM
CCc1c2c(nc3ccc(O)cc13)-c1cc3c(c(=O)n1C2)COC(=O)[C@]3(O)CC [SN-38],Fold Difference to Pip6,[4],~3
same,EC50,[4],0.00075 µM
O=c1cc(-c2cccc3c2Sc2ccccc2S3)oc(N2CCOCC2)c1 [KU-55933],reduction of AZ0108-induced pan-nuclear γH2AX,[7],~2 fold
C[C@]1(c2nc3c(C(N)=O)cccc3[nH]2)CCCN1 [Veliparib],Fold Difference to Pip6,[4],245827
same,EC50,[4],59.6 µM
"CC(F)(F)c1nnc2n1CCN(C(=O)c1cc(Cc3n[nH]c(=O)c4ccccc34)ccc1F)C2 [Pip5, 4-(4-Fluoro-3-(3-(1,1-difluoroethyl)-5,6,7,8-tetrahydro-[1,2,4]triazolo[4,3-a]pyrazine-7-carbonyl)benzyl)phthalazin-1(2H)-one]",potency in inhibiting cell growth compared with AZ0108,[3],substantially more potent than AZ0108
O=c1cc(N2CCOCC2)oc2c(-c3cccc4c3sc3ccccc34)cccc12 [NU7441],increase of AZ0108-induced pan-nuclear γH2AX,[7],~1.3 fold
Cc1cn([C@H]2C[C@H](O)[C@@H](CO)O2)c(=O)[nH]c1=O [Thymidine],G1,[5],2.79%
same,G2,[5],7.06%
same,S,[5],76.3%
CNCc1ccc(-c2[nH]c3cc(F)cc4c3c2CCNC4=O)cc1 [Rucaparib],Fold Difference to Pip6,[4],22998
same,EC50,[4],5.57 µM
"O=C(c1cc(Cc2n[nH]c(=O)c3ccccc23)ccc1F)N1CCn2c(nnc2C(F)(F)F)C1 [Pip3, 4-(4-Fluoro-3-(3-(trifluoromethyl)-5,6,7,8-tetrahydro-[1,2,4]triazolo[4,3-a]pyrazine-7-carbonyl)benzyl) phthalazin-1(2H)-one]",potency in inhibiting cell growth compared with AZ0108,[3],substantially more potent than AZ0108
"CC(C)c1nnc2n1CCN(C(=O)c1cc(Cc3n[nH]c(=O)c4ccccc34)ccc1F)C2 [Pip4, 4-(4-Fluoro-3-(3-isopropyl-5,6,7,8-tetrahydro-[1,2,4]triazolo[4,3-a]pyrazine-7-carbonyl)benzyl) phthalazin-1(2H)-one]",IC50,[1],0.0175 µM
dumbbell DNA probe with central nick,binding signal,[8],4 fold
Oc1c2ccccc2c2c3c(cccc13)N=N2 [SP600125],reduction of AZ0108-induced pan-nuclear γH2AX,[7],~2 fold
CS(=O)(=O)c1ccc(-c2cnc(N)c(C(=O)Nc3ccccc3)n2)cc1 [VE-821],effect on AZ0108-induced Ser345 phosphorylation of Chk1,[9],significantly inhibited
same,increase of AZ0108-induced pan-nuclear γH2AX,[7],~1.3 fold
Cn1ncnc1[C@H]1c2n[nH]c(=O)c3cc(F)cc(c23)N[C@@H]1c1ccc(F)cc1 [Talazoparib],Fold Difference to Pip6,[4],59
same,EC50,[4],0.0142 µM
"Cc1nnc2n1CCN(C(=O)c1cc(Cc3n[nH]c(=O)c4ccccc34)ccc1F)C2 [Pip2, 4-(4-Fluoro-3-(3-methyl-5,6,7,8-tetrahydro-[1,2,4]triazolo[4,3-a]pyrazine-7-carbonyl)benzyl) phthalazin-1(2H)-one]",exchange of the PARP-1:labled DNA complex with an unlabeled DNA competitor,[2],very little impact
